One compound from publication PMC6934184, “Selective DNA-PKcs inhibition extends the therapeutic index of localized radiotherapy and chemotherapy” (The Journal of Clinical Investigation, 2019) can be followed below.

What is called inhibition is the change of the read-out against control, counted positive when it falls. The low end stands for little suppression, the high end for strong suppression.

This experiment has as its target T1, PRKX (Homo sapiens, UniProt P51817).
T1 construct: purchased Thermo Fisher Scientific (Life Technologies) SelectScreen
Kind of experiment: SelectScreen Z'LYTE. It is filed as biochemical. The method in brief: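 SelectScreen broad panel; activity (Z'LYTE, Adapta) plus binding formats. ATP: Km app for CSF1R Z'LYTE; 10 for CAMK1 Adapta. Readout = % per kinase.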

T1 sequence (P51817 whole entry): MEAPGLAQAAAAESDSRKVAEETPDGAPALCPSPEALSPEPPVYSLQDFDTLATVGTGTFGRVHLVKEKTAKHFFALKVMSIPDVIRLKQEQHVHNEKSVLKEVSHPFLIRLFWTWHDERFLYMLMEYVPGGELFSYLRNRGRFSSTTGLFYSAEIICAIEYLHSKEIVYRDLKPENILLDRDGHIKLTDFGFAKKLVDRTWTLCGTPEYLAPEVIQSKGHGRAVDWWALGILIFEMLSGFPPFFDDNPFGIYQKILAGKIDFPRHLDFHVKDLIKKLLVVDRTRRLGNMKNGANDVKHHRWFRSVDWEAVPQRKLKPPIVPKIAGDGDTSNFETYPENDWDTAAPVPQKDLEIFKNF

On to `CN(C(=O)CN1CCOCC1)c1ccc2sc3c(-c4cccc5c(=O)cc(N6CC7CCC(C6)O7)oc45)cccc3c2c1` [NU5455], for which at 1 µM the inhibition was 12.5%.
